Results: patent publication US20230355674A1, “DONOR T-CELLS WITH KILL SWITCH” (CSL Behring LLC, priority 2020, published 2023)
“Also recorded” adds a separate entry of the source.

What was measured:
K562 cells = assay: Negative selection with MTX, transduced or transfected K562 cells; assay type: cell-based, human; details: 0.3 μM of MTX
Experimental: Transduced or transfected K562 cells (such as those from Example 1) were cultured with or without MTX from day 0 to day 14. The medium was refreshed every 3 to 4 days. GFP was analyzed on a flow machine and the InDel % was analyzed by T7E1 assay. […] On the other hand, the population of cells was steady without MTX. FIG. 14B illustrates that the transfected K562 cells were eliminated under treatment with 0.3 μM of MTX at a faster pace as compared with the HPRT-knockdown population.

[1] = MTX dose response in 6-TG selected CEM cells; assay type: cell-based; details: human, wild type CEM T cell leukemia cells, 0.5 μM MTX, thymidine 16 μM, read-out: viable wild type (WT) cells
Experimental: CEM T cell leukemia cells modified by 8 guide RNAs targeting the HPRT1 gene were cultured for 1 week in the presence of 10 μM 6-TG, replenished with fresh 6-TG every 48-72 hours. Following the selection period and confirmation of HPRT protein reduction, the CEM cells were tested for their sensitivity to a dose range of […], methotrexate (MTX) for 3 days in the presence of thymidine 16 μM (T1895 Sigma).

CEM cells = assay: Negative selection with MTX or MPA, transduced or transfected CEM cells; assay type: cell-based; details: 0.3 μM of MTX, day 0 to day 14
Experimental: Transduced or transfected CEM cells (such as those from Example 1) were cultured with or without MTX from day 0 to day 14. The medium was refreshed every 3 to 4 days. GFP was analyzed on flow machine and InDel % was analyzed by T7E1 assay.

[2] = system: CEM T cell leukemia cells; assay: 6-TG selection and 6-TG challenge of gRNA modified CEM cells (cell viability); assay type: cell-based; details: CEM, 10 μM 6-TG for 1 week, vs wild-type
Experimental: Cells confirmed to be transfected with the gRNA via the use of the tracr RNA (24 hours post electroporation) were purified using fluorescence activated cells sorting (FACS) prior to culture in 10 μM 6-TG for 1 week replenished with fresh 6-TG every 48-72 hours.
After 10 days in the presence of 10 uM 6-TG, replenished with fresh 6-TG every 48-72 hours, each cell line was challenged with increasing concentrations of 6-thioguanine (6-TG) and cell viability was compared to wild type (unmodified) CEM cells (see FIG. 40B).

primary human T cells [3] = assay: 6-TG resistance of gRNA modified primary human T cells (viability); assay type: cell-based; details: donors #9 and #10, 1 uM 6-TG, day 8 and day 13, vs unmodified
Text: FIG. 44 illustrates a method of modifying primary T-cells in accordance with one embodiment of the present disclosure. FIGS. 45A-45C illustrate 6-TG dose responses seven days following the modification of the primary T-cells in accordance with the modification methods described herein. In particular, FIGS. 45A and 45B illustrate the targeting of Exon 3 (guide RNA 13) and Exon 8 (guide RNA 21). The references “#9” and “#10” denote T-cell number and UT control (electroporated without RNP). FIG. 45C illustrates unmodified cells from donor #9 and donor #10 tested with increasing concentrations of 6-TG (day 4). It was observed that the […] primary T-cells were very sensitive to low doses of 6-TG. ICE Scores are shown below.
(§1) Peripheral blood mononuclear cells (PBMC) were isolated from Australian Red Cross Blood donor samples (n=2) via density centrifugation. […] By day 7, the original mixed PBMC population was determined to be primarily CD3+ T cells (flow cytometry; data not shown).
The cells were then cultured for about 7 and about 12 days in the presence of 1 uM 6-TG, with 6-TG replenished every about 2 to about 3 days. At each of these time points, the cells were assessed for the proportion of viable cells compared to untreated (UT) controls.

primary human T cells [4] = assay: MTX dose response in 6-TG selected primary human T cells; assay type: cell-based; details: primary human T cells after 12 days 1 μM 6-TG, MTX dose range 2 days, thymidine 16 μM
Experimental: Primary human T cells modified using guide RNAs targeting the HPRT1 gene and subsequently placed under selection pressure for 12 days with 1 μM 6-TG, with 6-TG replenished every 2 to 3 days, were subjected to a dose range of MTX in the presence of thymidine 16 μM for 2 days and assessed for cell viability.

HPRT protein [5] = assay: Western blot of HPRT protein in gRNA modified CEM cells; assay type: cell-based, human
Experimental: (§2) CEM T cell leukemia cells were electroporated (1600V, 10 ms pulse width, 3 pulses by using the Neon Transfection system) with ribonucleoprotein (RNP) complexes containing guide RNA (see Example 21) designed in-house and obtained from Integrated DNA Technologies (IDT), together with Cas9 and tracrRNA. Cells confirmed to be transfected with the gRNA via the use of the tracr RNA (24 hours post electroporation) were purified using fluorescence activated cells sorting (FACS) prior to culture for a further 72 hours, followed by assessment of cell survival when challenged with increasing concentrations of 6-thioguanine (6-TG) compared to wild type (unmodified) CEM cells.
Unmodified and modified CEM cells were also used for isolation of protein and detection of the HPRT protein using Western blot (FIG. 39, top panel). […] Actin protein detection (FIG. 39, bottom panel) was used as a protein loading control.
as §2, with “(gRNA; legend)” for “(see Example 21)”, “10 days in the presence” for “a further 72 hours, followed by assessment”, “10 uM 6-TG, replenished” for “cell survival when challenged”, “fresh 6-TG every 48-72 hours.” for “increasing concentrations of 6-thioguanine (6-TG) compared to wild type (unmodified) CEM cells.”
Following the selection period, protein was extracted from each cell and used for western blot-based detection of the HPRT protein. Detection of beta-actin was used as a protein loading control (Actin Antibody (ACTBD11B7): sc-81178. Santa Cruz).

HPRT1 gene [6] = assay: ICE scoring (indel, knockout score) of gRNA editing in primary T cells; assay type: cell-based; details: primary human T cells
Text: (§3) Indel Percentage—The editing efficiency (percentage of the pool with non-wild type sequence) as determined by comparing the edited trace to the control trace. In the ICE algorithm, potential editing outcomes are proposed and fitted to the observed data using linear regression.
(§4) Knockout Score—Represents the proportion of cells that have either a frameshift or 21+bp indel. This score is a useful measure for those who are interested in understanding how many of the contributing indels are likely to result in a functional Knockout (KO) of the targeted gene.
FIG. 44 illustrates a method of modifying primary T-cells in accordance with one embodiment of the present disclosure. FIGS. 45A-45C illustrate 6-TG dose responses seven days following the modification of the primary T-cells in accordance with the modification methods described herein. In particular, FIGS. 45A and 45B illustrate the targeting of Exon 3 (guide RNA 13) and Exon 8 (guide RNA 21). The references “#9” and “#10” denote T-cell number and UT control (electroporated without RNP). […]
as §1

HPRT protein [7] = assay: Western blot of HPRT protein in gRNA modified primary T cells; assay type: cell-based, human; details: 72 hours after electroporation
[8] = system: CEM T cell leukemia cells; assay: 6-TG dose response of gRNA modified CEM cells 72 hours after electroporation; assay type: cell-based; details: 72 hours culture, 6-TG tested up to 40 μM, vs unmodified
Experimental: as §2

HPRT1 gene [9] = assay: ICE scoring (indel, knockout score) of gRNA editing in CEM cells; assay type: cell-based, human
Text: The top candidate guide RNAs from Example 21 were screen in Jurkat cell lines (n=1) and validated in CEM cell lines (n=2). For instance, Jurkat cells were electroporated with a ribonucleoprotein (RNP) complex containing guide RNA (e.g. an RNP including a guide RNA having any one of SEQ ID NOS: 40-49) together with the Cas9 and tracrRNA. The methodology and analysis was the same for both Jurkat cell lines and CEM cell lines (see also, FIG. 37). Following electroporation, cell viability was measured at different concentrations of 6-TG (see FIG. 36).
as §3, §4, §2

Row | Compound | GFP population of transduced (HPRT knockdown) K562 cells (K562 cells; day 0 to day 14) | transfected (HPRT knockout) K562 cells (K562 cells; day 0 to day 14, compared with HPRT-knockdown population) | viability at 3 days, 0.5 µM [1] [%] | HPRT knockout population of CEM cells (CEM cells) | GFP population of transduced (HPRT knockdown) cells (CEM cells; CEM cells) | cell viability under 6-TG selection [2] | proportion of viable cells under 6-TG (primary human T cells [3]) | sensitivity to MTX compared to wild-type non-modified cells (UT) (primary human T cells [4]) | HPRT protein (Western blot) (HPRT protein [5]; 72 hours post-electroporation, no 6-TG selection, listed as guide 21) | HPRT protein (Western blot) (HPRT protein [5]; after 10 days of 6-TG selection (10 uM)) | knockout efficiency (ICE scoring) (HPRT1 gene [6]) | HPRT protein (Western blot) (HPRT protein [7]) | resistance to 6-TG challenge (cell survival) [8] | editing (ICE scoring), in words (HPRT1 gene [9])
1 | CN(Cc1cnc2nc(N)nc(N)c2n1)c1ccc(C(=O)N[C@@H](CCC(=O)O)C(=O)O)cc1 [MTX, methotrexate] | decreased | eliminated | 60 | eliminated at a faster pace | decreased |  |  |  |  |  |  |  |  | 
2 | gRNA 21: sgRNA guide and PAM TATCCTACAACAAACTTGTCTGG, HPRT 1 target Exon 8 (listed as DNA, chemistry not given here) |  |  |  |  |  | more variable viability | increased viability | increased sensitivity to MTX | reduced compared to wildtype; also recorded: detectable levels of HPRT protein | limited to no detectable levels of HPRT | about 1% | residual HPRT protein was observed | intermediate resistance | efficient editing
